# Data as given in US20110200165A1, “CONTRAST AGENT-REINFORCED RADIOTHERAPY HAVING HIGH-OUTPUT TUBES” (BAYER SCHERING PHARMA AKTIENGESELLSCHAFT, priority 2008, published 2011).
# Tests used:
# [1] = tested on: glioblastoma (GS9L) rat tumor model; assay: Contrast medium-enhanced CT radiation therapy, survival, glioblastoma (GS9L) rat tumor model; assay type: in vivo; settings: 2 g of iodine/kg i.v. within 6 minutes before each of 6 sessions of 3 Gy, 140 kV, total 18 Gy; versus irradiation with common salt and untreated
# Excerpt: The therapeutic effectiveness of the contrast medium-enhanced radiation therapy was examined on a glioblastoma (GS9L) rat tumor model. To this end, male Fisher rats were inoculated stereotactically with 5 […]I of cell suspension (10^6 glioblastoma 9L cells) in the brain. After 8 days, the tumor growth was ensured by means of MRT, and the animals were divided into 3 groups (n=5). The animals of group 1 received no therapy and were used as a control. Animals of groups 2 and 3 passed through a CT radiation therapy with a total dose of 18 Gy at a tube voltage of 140 kV (Volume Zoom, Siemens Medical Solutions, Erlangen). Six therapy sessions were performed (2 per day at an interval of 4 hours), and one dose of 3 Gy was administered to the animals in each case. The radiation was limited to the tumor using the layer collimators and introduced within 90 s, which corresponds to a tumor-dose rate of 2 Gy/minute. Before each therapy session, a dimeric contrast medium (Isovist 300, Bayer Schering Pharma, Berlin) in a dose of 2 g of iodine/kg of body weight was administered to the animals of group 2. The latter was administered intravenously, within 6 minutes. With this application scheme, a maximum iodine-tumor concentration in a short plateau phase of between 6 and 7 minutes is achieved (FIG. 14). […]
# [2] = tested on: glioblastoma (GS9L) rat tumor model; assay: Contrast medium-enhanced radiation therapy compared with linear accelerator, glioblastoma (GS9L) rat tumor model; assay type: in vivo
# Experimental: For examination of the therapeutic effectiveness of the contrast medium-enhanced radiation therapy with a high dose rate, the latter was compared to the therapeutic standard, i.e., a radiation therapy on the linear accelerator. To this end, a glioblastoma (GS9L) rat tumor model was used. Male Fischer rats were stereotactially inoculated with 5 µl of cell suspension (10^6 glioblastoma 9L cells) in the brain. After 8 days, the to growth was ensured by means of MRT, and the animals were divided into 3 groups. The animals of group 1 (n=6) obtained no therapy and were used as a control. Animals of group 2 (n=5) were treated on the linear accelerator (Novalis, Brain Lab AG, Feldkirchen) at 2 MV with a total dose of 18 Gy. This dose was administered to 3 in fractions of 6 Gy each on days 9, 10 and 11 after inoculation. The animals of group 3 passed through a contrast medium-enhanced radiation therapy on days 9-11 with a total dose of 18 Gy and a tube voltage of 140 kV (Volume Zoom, Siemens Medical Solutions, Erlangen). Six therapy sessions were carried out (2 per day at 4-hour intervals) and in each case a dose of 3 Gy was administered to the animals within 90 seconds. This corresponds to a tumor-dose rate of 2 Gy/minute. […]
# [3] = rat, in vivo
# Excerpt: The contrast medium can also be intraarterially introduced into the vessel as in interventional angiography. To this end, a catheter is positioned in front of the outlet of the vascular section of interest. In the GS9L rat tumor model, the contrast medium concentration in the tumor was studied at a low flow rate for an intraarterial administration in 4 animals. To this end, the carotid artery was catheterized on day 10 after inoculation of the tumor cells, and a cannula was placed in the internal carotid artery (19). Via the latter, Isovist 300 was administered in a dosage of 2 g of iodine within 6 minutes. CT images of the rat head were made at the points in time 0, 1, 2, . . . 15 and 20 minutes after the beginning of the injection. For evaluation, the DynEva equipment software was used. The mean absorption in the tumor, adjacent healthy brain areas and in adjacent skin areas was determined for each point in time and converted into the corresponding iodine concentration. […] Relative to an intravenous administration, the plateau phase is extended to 60-120 seconds, and the drop in iodine concentration is slower. During the contrast medium administration phase, iodine accumulates analogously in the tumor and reaches a plateau after the end of the latter. […] In the healthy brain tissue, only very low iodine concentrations<0.5 mg/ml were observed.
smiles,measurement,setting,value
"CN(C(=O)CC(=O)N(C)c1c(I)c(C(=O)NC(CO)C(O)CO)c(I)c(C(=O)NC(CO)C(O)CO)c1I)c1c(I)c(C(=O)NC(CO)C(O)CO)c(I)c(C(=O)NC(CO)C(O)CO)c1I (stereo not shown) [Isovist 300, Iotrolan]",survival after contrast medium-enhanced radiation therapy,[1],considerable therapeutic advantage
same,animals showing a significant therapy effect (survival time),"[2]; 2 g of iodine/kg i.v. within 6 minutes before each of 6 sessions of 3 Gy within 90 seconds, 140 kV, total 18 Gy",2 of 6
same,therapeutic result relative to standard therapy on the linear accelerator,"[2]; same total dose 18 Gy, linear accelerator 2 MV, 3 fractions of 6 Gy",therapeutic advantage
same,time of tumor iodine concentration maximum with plateau after the end of administration,[3],about 1 minute
